From US20220226338A1, “Methods of Treating Cancer Using CHK1 Inhibitors” (Sierra Oncology, Inc., priority 2019, published 2022)
Read-outs that look alike come from different tables or passages of the source.

Columns and labels:
plasma protein [1] = experiment: Plasma protein binding, ultracentrifugation, human plasma; assay type: in vitro ADME
Description: (§1) The PK of SRA737 have been determined in the mouse, rat, dog and monkey following oral and IV administration (Table 3). […] An acceptable terminal elimination t1/2 was also observed in each species. […] The plasma protein binding of SRA737 at 1 and 10 μM was examined in mouse, minipig, monkey and human plasma using ultracentrifugation and in dog plasma (10 μM) using rapid equilibrium dialysis.

[2] = SRA737 plasma and tumor concentrations in HT29 xenograft model; assay type: in vivo, mice; conditions: mouse, plasma, oral, read-out: plasma concentration with anti-tumor activity in preclinical efficacy models
Description: The effect of SRA737 on Gemcitabine induced CHK1 S296 autophosphorylation was assessed as described in Walton et al. (Oncotarget. 2016 January 19; 7(3): 2329-2342), herein incorporated by reference for all it teaches. Briefly, mice bearing HT29 tumor xenografts were administered (i) vehicle control or (ii) gemcitabine (100 mg/kg in saline, IV) or (iii) a combination of SRA737 (12.5, 25, 50 or 100 mg/kg in DTPW, oral) and gemcitabine (100 mg/kg) with SRA737 administered 24 hours following gemcitabine administration (n=3 per time point per treatment). […] Exposure in the tumor was greater than 10-fold higher than in plasma. The circulating plasma concentration at this 24-hour timepoint corresponded to a free drug concentration of approximately 6 nM (2 ng/mL) based on plasma protein binding in mice of 94%.

Chk1 = target: T1, Chk1 (Homo sapiens, UniProt O14757); conditions: previously found; Walton et al. Oncotarget 2016; cited from earlier work
T1 sequence (O14757 1-476): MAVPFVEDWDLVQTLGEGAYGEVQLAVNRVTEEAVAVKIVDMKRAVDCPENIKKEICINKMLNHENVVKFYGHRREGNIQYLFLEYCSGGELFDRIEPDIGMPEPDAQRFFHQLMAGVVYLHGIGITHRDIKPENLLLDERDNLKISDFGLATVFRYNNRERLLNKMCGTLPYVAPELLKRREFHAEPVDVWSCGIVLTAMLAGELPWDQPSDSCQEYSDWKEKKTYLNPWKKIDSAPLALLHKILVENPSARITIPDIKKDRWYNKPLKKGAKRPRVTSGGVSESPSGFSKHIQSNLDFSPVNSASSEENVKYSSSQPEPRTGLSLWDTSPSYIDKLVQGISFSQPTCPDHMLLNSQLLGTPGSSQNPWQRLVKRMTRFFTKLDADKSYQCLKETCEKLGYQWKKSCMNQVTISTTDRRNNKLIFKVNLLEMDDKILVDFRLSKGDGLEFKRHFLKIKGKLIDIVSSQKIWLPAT

plasma protein [3] = experiment: Plasma protein binding, ultracentrifugation, mouse plasma; assay type: in vitro ADME; conditions: for Percentage Bound / Percentage Free: Mouse plasma
Description: as §1

Single dose PK, monkey = assay type: in vivo
From the text: Several studies have been conducted to evaluate the PK properties of SRA737, such as the absorption (in vitro permeability assays and in vivo PK following IV and oral administration), distribution (in vivo tissue distribution and in vitro plasma protein binding) and metabolism (in vitro hepatocyte and CYP inhibition and induction studies) of SRA737.
as §1

[4] = GLP 28-day repeat oral dose toxicity and toxicokinetics, minipig; assay type: in vivo
Description: Reference source not found.6.
These findings were reversible on cessation of drug administration.
The MTD was 75 mg/kg/day (225 mg/m^2/day) in the mouse and the HNSTD was […] (350 mg/m^2/day) in the minipig.

[5] = test system: cryopreserved hepatocytes; experiment: Rank order of hepatocyte stability across species; assay type: in vitro ADME, human, mouse, rat, dog, minipig and monkey; conditions: 10 μM, up to 4 hours
Description: The formation of SRA737-related metabolites was determined in cryopreserved hepatocytes from human, mouse, rat, dog, minipig and monkey samples after incubation with SRA737 at a nominal concentration of 10 μM for up to 4 hours. […] In the human hepatocyte preparation, approximately 67% of the parent remained after 4 hours of incubation compared to 75% and 7% in the rat and minipig preparations, respectively. Eight human SRA737 metabolites were observed. All SRA737 metabolites formed by human hepatocytes were also formed by monkey hepatocytes. Six metabolites were present at equal or greater abundance in the monkey.

N#Cc1cnc(Nc2cc(NCC3CNCCO3)c(C(F)(F)F)cn2)cn1 (stereo not drawn) [SRA737, 5-[[4-[[morpholin-2-yl]methylamino]-5-(trifluoromethyl)-2-pyridyl]amino]pyrazine-2-carbonitrile]
Percentage Bound (plasma protein [1]; 1 μM): 87.7%
Percentage Free (plasma protein [1]; 1 μM): 12.4%
Percentage Bound (plasma protein [1]; 10 μM): 87.2%
Percentage Free (plasma protein [1]; 10 μM): 12.8%
concentration at 24 h ([2]; equivalent of 100 nM): ~37.9 ng/mL
concentration at 24 h ([2]; mice, sustained for 24 hours, PK/PD benchmark): 100 nM
inhibitor of Chk1 (Chk1): potent and selective inhibitor of Chk1 with limited off-target activity against other kinases
Percentage Bound (plasma protein [3]; 1 μM): 94.5%
Percentage Free (plasma protein [3]; 1 μM): 5.5%
Percentage Bound (plasma protein [3]; 10 μM): 93.4%
Percentage Free (plasma protein [3]; 10 μM): 6.6%
plasma protein binding (plasma protein [3]; mouse): ~94%
Foral (Single dose PK, monkey; Monkey oral 2 mg/kg single dose): 90%
Foral (Single dose PK, monkey; Monkey oral 10 mg/kg single dose): 104%
changes in reproductive organs ([4]; minipig): changes in reproductive organs, particularly the testes, were also observed
toxicological findings in the GI tract ([4]; minipig): Toxicological findings in the GI tract were also observed
dose-dependent toxicological findings ([4]; minipig pivotal study, reversible on cessation of drug administration): bone marrow toxicity
rank order of stability from most stable to least stable [5]: rat≈mouse>monkey˜human>>dog>>minipig
